Results: PubChem BioAssay AID1845195 (Molecular Pharmacology Branch, DTP, NCI, 2023)

Test system: 156681-154-R-J1 tumor spheroid viability
Test: Anticancer human tumor 156681-154-R-J1 patient-derived melanoma cell line growth inhibition
Conditions: spheroids with HUVEC and MSC; for IC50: curve of first compound; for viability, T/C: stronger effect = lower value; active = viability on the fitted dose curve at most 10% of control; inactive = the rest
Excerpt: Multicellular complex tumor spheroid response to DNA repair inhibitors in combination with DNA-damaging drugs
This study explores the anticancer activities of DNA-damaging drugs and inhibitors of DNA damage repair, both as single agents and in combinations. Complex tumor spheroids comprised of malignant cells, endothelial cells and mesenchymal stem cells served as an in vitro model for human solid tumors. This model system incorporates physiologically relevant features and patient-derived or established malignant cell lines with clinically relevant genetic alterations from many tumor types. Twenty-six patient-derived or established malignant cell lines were evaluated representing sarcoma, melanoma, small cell lung cancer (SCLC), non-small cell lung cancer (NSCLC), as well as bladder, ovarian and pancreatic cancers. The concentration ranges selected for each drug and investigational agent were based upon clinically achievable concentrations if the clinical Cmax of the agent was known.
Compounds. The drugs and compounds olaparib (NSC753686), talazoparib (NSC767125), berzosertib (NSC777718), elimusertib (NSC800525), nedisertib (NSC802822), VX-984 (NSC792969), AZD-1390 (NSC803789), temozolomide (NSC362856), topotecan (NSC609699), trabectedin (NSC813783), staurosporine (NSC755774), and gemcitabine (NSC613327) were obtained from the National Cancer Institute (NCI) Developmental Therapeutics Program Chemical Repository. The FDA-approved anticancer drug set is available from the Developmental Therapeutics Program at https://dtp.cancer.gov/organization/dscb/obtaining/available_plates.htm. […] The stock solutions were prepared in dimethyl sulfoxide (DMSO, Sigma-Aldrich, St. Louis, MO, cat. D2650) at 400-fold the tested concentration and stored at -70 degrees C. Prior to their use, the stock solutions were diluted in fresh medium and the final DMSO concentration in the assay was 0.25% (v/v). All drugs and investigational agents were tested over a range starting from a high concentration at or near the clinical Cmax and decreasing in half-log increments. If the clinical Cmax for an agent had not been determined, the highest concentration tested was 10 microM.
Cell Lines. The patient-derived cancer cell (PDC) lines: 156681-154-R-J1-PDC, 283228-195-R-J1-PDC, 287954-098-R-J1-PDC, 292921-168-R-J2-PDC, 349418-098-R-PDC, 425362-245-T-J1-PDC, 556581-035-R-J1-PDC, and BL0293-F563-PDC were received from the NCI Patient-Derived Models Repository (PDMR, https://pdmr.cancer.gov). The established cell lines HS-SY-2 (RRID:CVCL_8719), MPNST, and SYO-1 (RRID:CVCL_7146) were obtained from the Sloan Kettering Institute. The alveolar soft parts sarcoma cell line ASPS-1 (RRID:CVCL_S738) was established at the NCI and grown from internal seed stocks. The following established cell lines were purchased from the American Type Culture Collection (ATCC, Manassas, VA): G-401 (ATCC, cat. CRL-1441, RRID:CVCL_0270), SW982 (ATCC, cat. HTB-93, RRID:CVCL_1734), VA-ES-BJ (ATCC, cat. CRL-2138, RRID:CVCL_1785), NCI-H719 (ATCC, cat. CRL-5837, RRID:CVCL_1582), NCI-H196 (ATCC, cat. CRL-5823, RRID:CVCL_1509), NCI-H841 (ATCC, cat. CRL-5845, RRID:CVCL_1595), NCI-H1618 (ATCC, cat. CRL-5879, RRID:CVCL_1480), NCI-H1876 (ATCC, cat. CRL-5902, RRID:CVCL_1503), DMS 114 (ATCC, cat. CRL-2066; RRID:CVCL_1174), NCI-H211 (ATCC, cat. CRL-5824; RRID:CVCL_1529), and SW 1271 (ATCC, cat. CRL-2177, RRID:CVCL_1716). The small cell lung cancer cell line COR-L88 was purchased from Sigma-Aldrich (cat. 92031917-1VL, RRID:CVCL_1141). The non-small cell lung cancer cell lines NCI-H226 (RRID:CVCL_1544) and NCI-H322M (RRID:CVCL_1557) were established at the NCI and grown from internal seed stocks. Pooled donor human umbilical vein endothelial cells (HUVEC, Lonza, cat. CC-2519) and human mesenchymal stem cells (hMSC, Lonza, cat. PT-2501) were purchased from Lonza (Walkersville, MD).
Cell Culture. All cells were maintained in an incubator at 37 degrees C and 5% CO2 with 95% humidity. […]
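Note: spheroids exposed to compounds for 7 days before readout.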
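Throughout, for viability, T/C: percent of vehicle control viability where 100% = DMSO-treated spheroids.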

Cc1sc2c(c1C)C(c1ccc(Cl)cc1)=NC(CC(=O)Nc1ccc(O)cc1)c1nnc(C)n1-2 (stereo not given) + CC[C@@]1(O)C(=O)OCc2c1cc1n(c2=O)Cc2cc3c(CN(C)C)c(O)ccc3nc2-1
78.6 nM: IC50 (second compound 0.03 µM)
1960 nM: IC50 (second compound 0.00949 µM)
< 9.49 nM: IC50 (second compound 0.0949 µM) | IC50 (second compound 0.3 µM)
1460 nM: IC50 (second compound 0.003 µM)
inactive: viability, T/C (second compound 0.003 µM, first compound 0.00949 µM) 155% | viability, T/C (second compound 0.003 µM, first compound 0.03 µM) 103% | viability, T/C (second compound 0.003 µM, first compound 0.0949 µM) 81.1% | viability, T/C (second compound 0.003 µM, first compound 0.3 µM) 70% | viability, T/C (second compound 0.003 µM, first compound 0.949 µM) 61.1% | viability, T/C (second compound 0.003 µM, first compound 3 µM) 47.4% | viability, T/C (second compound 0.00949 µM, first compound 0.00949 µM) 68.4% | viability, T/C (second compound 0.00949 µM, first compound 0.03 µM) 88.6% | viability, T/C (second compound 0.00949 µM, first compound 0.0949 µM) 82.6% | viability, T/C (second compound 0.00949 µM, first compound 0.3 µM) 75.4% | viability, T/C (second compound 0.00949 µM, first compound 0.949 µM) 62.4% | viability, T/C (second compound 0.00949 µM, first compound 3 µM) 42.8% | viability, T/C (second compound 0.03 µM, first compound 0.00949 µM) 50.1% | viability, T/C (second compound 0.03 µM, first compound 0.03 µM) 54.9% | viability, T/C (second compound 0.03 µM, first compound 0.0949 µM) 51.3% | viability, T/C (second compound 0.03 µM, first compound 0.3 µM) 39% | viability, T/C (second compound 0.03 µM, first compound 0.949 µM) 29.8% | viability, T/C (second compound 0.03 µM, first compound 3 µM) 19.1% | viability, T/C (second compound 0.0949 µM, first compound 0.00949 µM) 22.5% | viability, T/C (second compound 0.0949 µM, first compound 0.03 µM) 21.8% | viability, T/C (second compound 0.0949 µM, first compound 0.0949 µM) 21% | viability, T/C (second compound 0.0949 µM, first compound 0.3 µM) 22.5% | viability, T/C (second compound 0.0949 µM, first compound 0.949 µM) 24.6% | viability, T/C (second compound 0.0949 µM, first compound 3 µM) 24.4% | viability, T/C (second compound 0.3 µM, first compound 0.00949 µM) 33.2% | viability, T/C (second compound 0.3 µM, first compound 0.03 µM) 29.1% | viability, T/C (second compound 0.3 µM, first compound 0.0949 µM) 31.1% | viability, T/C (second compound 0.3 µM, first compound 0.3 µM) 24.8% | viability, T/C (second compound 0.3 µM, first compound 0.949 µM) 25.4% | viability, T/C (second compound 0.3 µM, first compound 3 µM) 16.5%

CC1COCCN1c1cc(-c2ccnn2C)c2ccnc(-c3ccn[nH]3)c2n1 (stereo not given) + CC[C@@]1(O)C(=O)OCc2c1cc1n(c2=O)Cc2cc3c(CN(C)C)c(O)ccc3nc2-1
194 nM: IC50 (second compound 0.00949 µM)
< 31.6 nM: IC50 (second compound 0.0949 µM) | IC50 (second compound 0.3 µM)
52.4 nM: IC50 (second compound 0.03 µM)
inactive: viability, T/C (second compound 0.003 µM, first compound 0.0316 µM) 83.5% | viability, T/C (second compound 0.003 µM, first compound 0.1 µM) 62.5% | viability, T/C (second compound 0.003 µM, first compound 0.316 µM) 36.7% | viability, T/C (second compound 0.003 µM, first compound 1 µM) 27.1% | viability, T/C (second compound 0.003 µM, first compound 3.16 µM) 26.7% | viability, T/C (second compound 0.003 µM, first compound 10 µM) 23.9% | viability, T/C (second compound 0.00949 µM, first compound 0.0316 µM) 60.7% | viability, T/C (second compound 0.00949 µM, first compound 0.1 µM) 66.5% | viability, T/C (second compound 0.00949 µM, first compound 0.316 µM) 39.9% | viability, T/C (second compound 0.00949 µM, first compound 1 µM) 31.9% | viability, T/C (second compound 0.00949 µM, first compound 3.16 µM) 29.6% | viability, T/C (second compound 0.00949 µM, first compound 10 µM) 23.6% | viability, T/C (second compound 0.03 µM, first compound 0.0316 µM) 55.2% | viability, T/C (second compound 0.03 µM, first compound 0.1 µM) 44.8% | viability, T/C (second compound 0.03 µM, first compound 0.316 µM) 32.8% | viability, T/C (second compound 0.03 µM, first compound 1 µM) 28.5% | viability, T/C (second compound 0.03 µM, first compound 3.16 µM) 27.4% | viability, T/C (second compound 0.03 µM, first compound 10 µM) 23.5% | viability, T/C (second compound 0.0949 µM, first compound 0.0316 µM) 26.3% | viability, T/C (second compound 0.0949 µM, first compound 0.1 µM) 26.6% | viability, T/C (second compound 0.0949 µM, first compound 0.316 µM) 28.3% | viability, T/C (second compound 0.0949 µM, first compound 1 µM) 27.5% | viability, T/C (second compound 0.0949 µM, first compound 3.16 µM) 26.7% | viability, T/C (second compound 0.0949 µM, first compound 10 µM) 21.1% | viability, T/C (second compound 0.3 µM, first compound 0.0316 µM) 35.2% | viability, T/C (second compound 0.3 µM, first compound 0.1 µM) 34.3% | viability, T/C (second compound 0.3 µM, first compound 0.316 µM) 39.6% | viability, T/C (second compound 0.3 µM, first compound 1 µM) 37.2% | viability, T/C (second compound 0.3 µM, first compound 3.16 µM) 29.6% | viability, T/C (second compound 0.3 µM, first compound 10 µM) 27.6%
175 nM: IC50 (second compound 0.003 µM)
